From patent US20060154923A1, “N-phenyl-3-cyclopropylpyrazole-4-carbonitriles as ectoparasiticidal agents” (priority 2002, published 2006)
Where two headings read alike, the source gives them in different places.

Legend:
Assay type in all cases: in vivo
[1] = system: Ctenocephatides felis, adult cat fleas; assay: Contact activity against adult cat fleas, coated glass vial assay
Method: Evaluation of the Efficacy of Test Compounds Against Adult Cat Fleas
(§1) The contact activity of a test compound against Ctenocephatides felis, adult cat fleas, is evaluated in a coated, glass vial assay. In this evaluation, a solution of test compound in acetone is allowed to dry on the interior surface of a 20 mL vial. Ten unfed adult cat fleas are added to the treated vial and mortality is assessed periodically for up to 48 h. All treatments are replicated 2 times. The data are averaged.

[2] = system: Rhipacephalus sanguineus, adult ticks; assay: Contact activity against adult ticks, coated glass vial assay
Method: Evaluation of the Efficacy of Test Compounds Against Adult Ticks
as §1, with “Rhipacephalus sanguineus,” for “Ctenocephatides felis,”, “ticks,” for “cat fleas,”, “coated” for “coated,”, “Five” for “Ten”, “ticks” for “cat fleas”

[3] = system: newly emerged larvae of Lucilia sericata, blowfly; assay: Efficacy against blowfly larvae, treated paper/serum bioassay; conditions: for % Mortality 24 h / % Mortality 48 h: blowfly larvae; for mortality at 0.2 ppm / mortality at 2 ppm / mortality at 20 ppm: Lucilia sericata
Method: Evaluation of Efficacy of Test Compounds Against Blowfly Larvae
The efficacy of a test compound against newly emerged larvae of Lucilia sericata, blowfly, is evaluated using a treated paper/serum bioassay. In this evaluation, a solution of test compound in acetone is applied to a filter paper disc and the disc is allowed to dry. Bovine serum and about 20 newly emerged blowfly larvae are added to the treated paper disc and the mortality is assessed at 24 h and 48 h. The data are averaged.

[4] = 24 h, read-out: % Mortality 24 h
[5] = 48 h, read-out: % Mortality 48 h

| Compound | % Mortality 4 h ([1]; Conc. 2 ug/cm2, 4 h) | % Mortality 24 h ([1]; Conc. 2 ug/cm2, 24 h) | % Mortality 4 h ([2]; Conc. 0.78 ug/cm2, 4 h) | % Mortality 24 h ([2]; Conc. 0.78 ug/cm2, 24 h) | % Mortality 4 h ([2]; Conc. 7.80 ug/cm2, 4 h) | % Mortality 24 h ([2]; Conc. 7.80 ug/cm2, 24 h) | % Mortality 24 h ([3]; Conc. 0.2 ppm, 24 h) | % Mortality 48 h ([3]; Conc. 0.2 ppm, 48 h) | % Mortality 24 h ([3]; Conc. 2.0 ppm, 24 h) | % Mortality 48 h ([3]; Conc. 2.0 ppm, 48 h) | % Mortality 24 h ([3]; Conc. 20.0 ppm, 24 h) | % Mortality 48 h ([3]; Conc. 20.0 ppm, 48 h) | further results |
| --- | --- | --- | --- | --- | --- | --- | --- | --- | --- | --- | --- | --- | --- |
| CC1(c2nn(-c3c(Cl)cc(C(F)(F)F)cc3Cl)c(Cl)c2C#N)CC1(Br)Br (centres unmarked) [Example 20] | 20% | 100% | 0% | 20% | 20% | 50% | 0% | 0% | 100% | 100% | 100% | 100% |  |
| CC1(c2nn(-c3c(Cl)cc(C(F)(F)F)cc3Cl)c(N)c2C#N)CC1(Br)Br (centres unmarked) [Example 21] | 0% | 0% | 10% | 10% | 0% | 40% | 0% | 0% | 95% | 100% | 90% | 100% |  |
| CC1(c2nn(-c3c(Cl)cc(C(F)(F)F)cc3Cl)c(Br)c2C#N)CC1(Br)Br (centres unmarked) [Example 22] | 0% | 100% | 20% | 30% | 0% | 60% | 0% | 0% | 100% | 100% | 100% | 100% |  |
| CC1(c2nn(-c3c(Cl)cc(C(F)(F)F)cc3Cl)c(Br)c2C#N)CC1(Cl)Cl (centres unmarked) [Example 29] | 50% | 100% | 0% | 40% | 20% | 60% | 15% | 15% | 100% | 100% | 100% | 100% | % Mortality 4 h ([1]; Conc. 0.02 ug/cm2, 4 h): 10%; % Mortality 24 h ([1]; Conc. 0.02 ug/cm2, 24 h): 100%; % Mortality 4 h ([1]; Conc. 0.2 ug/cm2, 4 h): 20%; % Mortality 24 h ([1]; Conc. 0.2 ug/cm2, 24 h): 100% |
| CC1(c2nn(-c3c(Cl)cc(C(F)(F)F)cc3Cl)c(I)c2C#N)CC1(Cl)Cl (centres unmarked) [Example 31] | 20% | 100% | 10% | 20% | 50% | 50% | 0% | 0% | 95% | 100% | 97% | 100% |  |
| CN(C)c1c(C#N)c(C2(C)CC2(Cl)Cl)nn1-c1c(Cl)cc(C(F)(F)F)cc1Cl (centres unmarked) [Example 32] | 0% | 100% | 0% | 60% | 0% | 30% | 0% | 0% | 0% | 0% | 91% | 96% |  |
| N#Cc1nn(-c2c(Cl)cc(C(F)(F)F)cc2Cl)c(N)c1[S+]([O-])C(F)(F)F (centres unmarked) [Standard, Fipronil, reference compound] | 30% | 100% | 90% | 100% | 100% | 100% |  |  |  |  |  |  | % Mortality 4 h ([1]; Conc. 0.02 ug/cm2, 4 h): 0%; % Mortality 24 h ([1]; Conc. 0.02 ug/cm2, 24 h): 100%; % Mortality 4 h ([1]; Conc. 0.2 ug/cm2, 4 h): 10%; % Mortality 24 h ([1]; Conc. 0.2 ug/cm2, 24 h): 100%; mortality at 0.2 ppm [3, 4]: 0%; mortality at 2 ppm [3, 4]: 100%; mortality at 20 ppm [3, 4]: 100%; mortality at 0.2 ppm [3, 5]: 100%; mortality at 2 ppm [3, 5]: 100%; mortality at 20 ppm [3, 5]: 100% |
